Key:
[1] = Solubility as observed in the enzyme inhibition assays; format: physicochemical; parameters: key to solubility (footnote b): -: The compound was not soluble; conditions: for solubility (footnote b): CK inhibition assay at 10 and 30 µM; for solubility (in words): IC50 could not be determined
HT29 = assay: Antiproliferative activity, resazurin assay, 72 h; format: cell-based, human
Protocol: (§1) Human cervix carcinoma (HeLa), Non-small lung adenocarcinoma (A549), Colon adenocarcinoma (HT29), and human triple negative breast cancer (MDA-MB-231) were cultured in Dulbecco’s modified Eagle’s media (DMEM). B-acute lymphoblastic leukemia (RS4;11 and SEM), T-acute lymphoblastic leukemia (Jurkat), and human promyelocytic cells (HL-60), were cultured in RPMI-1640 medium. Both media were purchased from Gibco, Life Technologies (Milan, Italy) and supplemented with 10% Fetal Bovine Serum (FBS, Invitrogen, Milan, Italy,). Every six months, each cell line was checked for the presence of mycoplasma by RT-PCR.
(§2) Stock solutions (10 mM) of the different compounds were made in DMSO. Cancer cells were seeded in tissue-treated, flat bottom, 384-well plates (Corning) according to their optimal density, (A549 1000 cells/wells; MDA-MB-231, HeLa and HT-29 2000 cells/well and finally Jurkat, HL-60 SEM and RS4;11 20.000 cells/well) in 27 µL of complete medium per well.
(§3) The day after cell seeding and immediately before cell treatment, 10 mM stock solutions of the compounds were pre-diluted to a […] concentration in 250 µL of Hank’s in a 96-well plate (Corning). Subsequent 1:5 dilutions were carried out using a microlab STAR 96-CORE liquid handling system (Hamilton), a robotized liquid handling tool that was employed for all steps, from cell seeding to drug dilution and cell treatment to ensure high reproducibility while reducing time for large screening execution. This pre-dilution step was necessary to avoid DMSO-related cytotoxicity and compound precipitation in the cell culture medium. In every case, DMSO concentration never exceeded 0.1%.
(§4) Positive (Bortezomib 1 µM) and negative (0.1% DMSO) controls were included in all the screened plates to allow for monitoring the Z’ factor throughout the entire screening. Cells were treated with 3 µL of the previously made dilutions; thus, generating a 6-point 5-fold dose–response curve starting from 10 µM. Within a plate, each drug concentration was tested in duplicate in two independent experiments for each compound.
(§5) Treated cells were then placed inside the CO2 incubator for 72 h at 37 °C. Cell viability was assessed by resazurin assay, in which 3 µL of resazurin per well were added using the previously described automated platform. Plates were placed in the incubator at 37 °C for 2 h, and then the fluorescence of each plate was read using a Spark 10 M multimode microplate reader (Tecan Group Ltd., Mannedorf, Switzerland) with 535 nm excitation wavelength and 600 nm emission wavelength.

HL-60 = assay: Antiproliferative activity, resazurin assay, 72 h; format: cell-based, human
Protocol: as §1, §2, §3, §4, §5

MDA-MB-231 = assay: Antiproliferative activity, resazurin assay, 72 h; format: cell-based, human
Protocol: as §1, §2, §3, §4, §5

HeLa = assay: Antiproliferative activity, resazurin assay, 72 h; format: cell-based, human
Protocol: as §1, §2, §3, §4, §5

A549 = assay: Antiproliferative activity, resazurin assay, 72 h; format: cell-based, human
Protocol: as §1, §2, §3, §4, §5

RS 4;11 = assay: Antiproliferative activity, resazurin assay, 72 h; format: cell-based, human
Protocol: as §1, §2, §3, §4, §5

Jurkat = assay: Antiproliferative activity, resazurin assay, 72 h; format: cell-based, human
Protocol: as §1, §2, §3, §4, §5

SEM cells = assay: Antiproliferative activity, resazurin assay, 72 h; format: cell-based, human
Protocol: as §1, §2, §3, §4, §5

CKα1 = target: T1, CKα1 (Homo sapiens, UniProt P35790); assay: Choline kinase assay ([methyl-14C]choline into PCho, purified enzyme); format: biochemical; conditions: for IC50: concentration required to inhibit CKα1 enzyme by 50%; for % Inhibition at 10 µM: purified CKα1, inhibitor 10 µM; for % Inhibition at 10 µM / % Inhibition at 30 µM: end-point assay; for % Inhibition at 30 µM: purified CKα1, inhibitor 30 µM
T1 construct: an N-terminally His-tagged truncated form of CKα1 (Δ75–457) was cloned into a pET-28a vector; His tag (N); made in house; host or cells: E. coli BL21 (DE3) Star
T1 sequence (P35790 75-457): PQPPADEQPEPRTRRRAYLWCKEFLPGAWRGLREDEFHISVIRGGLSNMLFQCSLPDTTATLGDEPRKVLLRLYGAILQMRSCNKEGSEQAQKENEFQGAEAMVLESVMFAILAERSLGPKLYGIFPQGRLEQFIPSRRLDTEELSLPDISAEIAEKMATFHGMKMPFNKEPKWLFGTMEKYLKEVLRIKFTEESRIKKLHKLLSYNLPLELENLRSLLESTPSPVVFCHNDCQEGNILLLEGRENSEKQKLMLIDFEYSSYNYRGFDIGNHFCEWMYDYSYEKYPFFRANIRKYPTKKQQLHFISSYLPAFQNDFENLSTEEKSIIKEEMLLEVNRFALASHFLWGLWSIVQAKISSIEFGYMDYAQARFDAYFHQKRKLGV
Protocol: The protein was produced and purified as previously described. Briefly, an N-terminally His-tagged truncated form of CKα1 (Δ75–457) was cloned into a pET-28a vector and expressed at 37 °C in E. coli BL21 (DE3) Star cells using 1 mM isopropyl β-D-1-thiogalactopyranoside (IPTG). After centrifugation, the cellular pellet was resuspended in 50 mM Tris-HCl pH 7.5, 500 mM NaCl, 0.2 mM phenylmethylsulphonyl fluoride (PMSF), DNase, and 0.5 mM β-mercaptoethanol, sonicated and subjected to a two-step purification procedure to isolate the target enzyme. […] Protein elution was completed using buffer A + 400 mM imidazole. A second size-exclusion chromatography step was then carried out to achieve complete purity. To this end, we used a HiPrep 26/60 Sephacryl 100 HR column (GE Healthcare, Little Chalfont, Buckinghamshire, UK) and a 20 mM Tris/HCl pH 7.5, 150 mM NaCl running buffer.
To study the effect of the compounds on CKα, an in vitro enzymatic assay was performed using the purified enzyme as previously reported in [19, 28, 29]. Briefly, the incorporation of ^14C from [methyl-^14C]choline into PCho in either the absence (control) or presence of different inhibitors at varying concentrations was used to determine the CK activity. The reaction mixture included 20 ng of purified CKα1, 10 mM ATP, 10 mM MgCl2, 100 mM Tris-HCl pH 8.5, and increasing concentrations of compounds. The mixture was preincubated at 37 °C for 5 min. Then, [methyl-^14C]choline chloride (1 mM, 4500 dpm/nmol) was added and the reaction was left to proceed for 10 min at 37 °C. The assay was stopped by immersing the reaction tubes in boiling water. PCho was separated by Thin Layer Chromatography using methanol/0.6% NaCl/28% NH4OH in water (50:50:5, v/v/v) as solvent. The radioactivity associated into PCho was determined in a Beckman 6000-TA (Madrid, Spain) liquid scintillation counter. The 50% inhibitory concentrations (IC50 values) were determined from the % enzyme activity at different concentrations of synthetic inhibitors relative to the control by using a sigmoidal dose–response curve (ED50plus v1.0 software).

HepG2 cells = assay: Choline uptake assay ([methyl-14C]choline); format: cell-based, human; conditions: HepG2, 24 h
Protocol: Choline uptake was assessed as previously reported. Briefly, HepG2 cells (200,000 cells/well) were incubated for 24 h at 37 °C with different concentrations of CKα1 inhibitors. Then, cells were exposed to [methyl-^14C]choline ([…], 31 Ci/mol) for 5 min at 37 °C. The reaction was stopped by two washes with ice-cold PBS containing 580 μM choline. The cells were solubilized in NaOH 0.1 N and the total amount of radiolabel taken up by the cells was measured by liquid scintillation using a Beckman 6000-TA counter (Madrid, Spain).

Compound | solubility (footnote b) [1] | solubility (in words) [1] | GI50 (HT29) [nM] | GI50 (HL-60) [nM] | GI50 (MDA-MB-231) [nM] | GI50 (HeLa) [nM] | GI50 (A549) [nM] | GI50 (RS 4;11) [nM] | GI50 (Jurkat) [nM] | GI50 (SEM cells) [nM] | IC50 (CKα1) [nM] | % Inhibition at 10 µM (CKα1) [%] | % Inhibition at 30 µM (CKα1) [%] | % Inhibition Choline Uptake at 0.5 μM (HepG2 cells; 0.5 μM) [%] | % Inhibition Choline Uptake at 2 μM (HepG2 cells; 2 μM) [%]
[Br-].[Br-].c1cc2c(s1)c(N1CCCCCC1)nc[n+]2Cc1ccc(CCc2ccc(C[n+]3cnc(N4CCCCCC4)c4sccc43)cc2)cc1 [Fa-23] | - ^b | insolubility | 1560 ± 200 | 510 ± 50 | 1130 ± 200 | 1170 ± 100 | 600 ± 60 | 2080 ± 30 | 6150 ± 600 | 2170 ± 20 |  |  |  |  | 
[Br-].[Br-].c1cc2c(N3CCCCCC3)nc[n+](Cc3ccc(OCCOc4ccc(C[n+]5cnc(N6CCCCCC6)c6ccsc65)cc4)cc3)c2s1 [Ff-36] |  |  | > 10000 | 440 ± 20 | 2260 ± 300 | 3020 ± 400 | 1430 ± 100 | 2260 ± 300 | 6200 ± 900 | 2540 ± 200 | 350 ± 50 | 84.47 | 96.07 | 71.78 ± 0.1 | 95.32 ± 0.29
[Br-].[Br-].c1cc2c(N3CCCCCC3)nc[n+](Cc3ccc(CCc4ccc(C[n+]5cnc(N6CCCCCC6)c6ccsc65)cc4)cc3)c2s1 [Fg-19] | - ^b | insolubility | 1420 ± 100 | 150 ± 10 | 500 ± 20 | 780 ± 20 | 310 ± 40 | 1510 ± 200 | 4720 ± 600 | 2590 ± 30 |  |  |  |  | 
[Br-].[Br-].c1cc2c(N3CCCCCC3)nc[n+](Cc3ccc(-c4ccc(C[n+]5cnc(N6CCCCCC6)c6ccsc65)cc4)cc3)c2s1 [Fg-18] | - ^b |  | 2320 ± 20 | 790 ± 20 | 610 ± 30 | 1810 ± 20 | 210 ± 10 | 2650 ± 40 | 7040 ± 800 | > 10000 |  |  |  |  | 
[Br-].[Br-].c1cc2c(N3CCCC3)nc[n+](Cc3ccc(CCc4ccc(C[n+]5cnc(N6CCCC6)c6ccsc65)cc4)cc3)c2s1 [Fg-15] |  |  | 2010 ± 30 | 130 ± 10 | 260 ± 20 | 1000 ± 100 | 220 ± 30 | 3710 ± 40 | > 10000 | > 10000 | ≥ 5000 | 71.11 | 81.29 |  | 
[Br-].[Br-].c1cc2c(N3CCCCC3)nc[n+](Cc3ccc(CCCCc4ccc(C[n+]5cnc(N6CCCCC6)c6ccsc65)cc4)cc3)c2s1 [Ff-6] |  |  | 930 ± 40 | 190 ± 10 | 500 ± 20 | 420 ± 50 | 190 ± 30 | 1500 ± 200 | 6700 ± 800 | 2520 ± 200 | ≥ 10000 | 46.43 | 73.19 |  | 
[Br-].[Br-].c1cc2c(s1)c(N1CCCC1)nc[n+]2Cc1ccc(CCc2ccc(C[n+]3cnc(N4CCCC4)c4sccc43)cc2)cc1 [Fg-16] |  |  | 2640 ± 60 | 210 ± 30 | 380 ± 10 | 670 ± 20 | 250 ± 20 | 7270 ± 800 | > 10000 | > 10000 | 1810 ± 170 | 80.28 | 85.87 |  | 
[Br-].[Br-].c1cc2c(s1)c(N1CCCCC1)nc[n+]2Cc1ccc(OCCOc2ccc(C[n+]3cnc(N4CCCCC4)c4sccc43)cc2)cc1 [Fa-28] |  |  | > 10000 | 350 ± 10 | 190 ± 10 | 590 ± 20 | 290 ± 20 | 2320 ± 30 | > 10000 | 2410 ± 40 | 3250 ± 540 | 87.69 | 92.19 |  | 
[Br-].[Br-].c1cc2c(s1)c(N1CCCC1)cc[n+]2Cc1ccc(CCCCc2ccc(C[n+]3ccc(N4CCCC4)c4sccc43)cc2)cc1 [Ff-1] |  |  | 3320 ± 30 | 790 ± 50 | 1230 ± 10 | 1900 ± 10 | 970 ± 20 | 7900 ± 1300 | 4130 ± 400 | 3070 ± 300 | 1540 ± 170 | 82.15 | 90.83 |  | 
[Br-].[Br-].c1cc2c(s1)c(N1CCCCC1)nc[n+]2Cc1ccc(CCc2ccc(C[n+]3cnc(N4CCCCC4)c4sccc43)cc2)cc1 [Fa-25] | - ^b | insolubility | 1470 ± 60 | 140 ± 10 | 330 ± 20 | 620 ± 20 | 280 ± 20 | 1840 ± 100 | 5480 ± 500 | 2530 ± 30 |  |  |  |  | 
